System: T-cells
Assay: Deletion of chimeric protein-expressing T-cells with Rapamycin (Annexin-V/7AAD flow cytometry)
Assay type: cell-based
Settings: 48 hours; for deletion of transduced T-cells: different concentrations of Rapamycin, live cells expressing fluorescent proteins; for deletion of T-cells expressing both eGFP and eBFP2: lowest concentration of Rapamycin, co-transduced pair
Procedure: T-cells were either transduced with eGFP alone (FIG. 2a), or co-transduced with FKBP12-dCasp9 (co-expressing eGFP) and FRB-dCasp9 (co-expressing eBFP2) (FIG. 2b). T-cells were intentionally only partially transduced so that the non-transduced T-cells would act as internal controls. […] After 48 hours, cells were stained with Annexin-V and 7AAD and analysed by flow cytometry looking at the proportion of live cells which were expressing fluorescent proteins.
FIG. 3—Function of RapCasp9 variants. T-cells were transduced with (a) eGFP alone; (b) double transduced with FKBP12-Casp9 and FRB-Casp9 co-expressed with eGFP and eBFP2 respectively; (c) transduced with FRB-FKBP12-Casp9 and (d) transduced with FRB-Casp9-FKBP12 and (e) FBP12-Casp9-2A-FRB-FRBw. Only a proportion of cells were transduced, the negative cells acted as an internal negative control. […] T-cells were then stained with Annexin-V and 7AAD and analysed by flow-cytometry. eGFP vs eBFP2 is shown on live cells as determined by Annexin-V and 7AAD staining.
T-cells were transduced with the different constructs. For the two-molecule rapCasp9 (FIG. 1a), T-cells were transduced with two vectors: one coding for FKBP12-Casp9 co-expressed with the green fluorescent protein eGFP by means of an internal ribosome entry sequence, and the other coding for FRB-Casp9 co-expressed with the blue fluorescent protein eBFP2. For the one molecule rapCasp9 (FIG. 1b), T-cells were transduced with just one vector coding for the respective rapCasp9 which are co-expressed eGFP. A construct which provided FKB12-Casp9 and FRB-FRBw was encoded in a tri-cistronic cassette whereby the FKBP12-Casp9 and FRB-FRBw were co-expressed using a FMD-2A like peptide and eGFP was co-expressed with an IRES. The T-cells were intentionally only partially transduced so within the cell culture a proportion of cells remained non-transduced to act as an internal negative control.
Following this, T-cells were stained with Annexin-V and 7AAD and analysed by flow-cytometry. By gating on the live cells, and interrogating the population of cells expressing fluorescent proteins, survival of the transduced and non-transduced populations could be clearly measured.

| Molecule | deletion of transduced T-cells | deletion of T-cells expressing both eGFP and eBFP2 |
| --- | --- | --- |
| FKBP12-Casp9: catalytic domain of Casp9 fused with FKBP12; tested co-expressed with FRB-Casp9 | effective deletion of only double positive cells | very effectively deleted |
| FKBP12-Casp9/FRB-FRBw: Caspase 9 catalytic domain fused to FKBP12, co-expressed with a fusion of two copies of FRB | effective deletion of single positive cells | – |
| FKBP12-FRB-Casp9: single construct where FKBP12 and FRB are fused together and then fused to the catalytic domain of Casp9 by a flexible linker | effective deletion of single positive cells | – |
| FRB-Casp9: catalytic domain of Casp9 fused with FRB; tested co-expressed with FKBP12-Casp9 (protein, Chimeric protein FRB-dCasp9) MASRILWHEMWHEGLEEASRLYFGERNVKGMFEVLEPLHAMMERGPQTLKETSFNQAYGRDLMEAQEWCRKYMKSGNVKDLLQAWDLYYHVFRRISKLEYSGGGSGVDGFGDVGALESLRGNADLAYILSMEPCGHCLIINNVNFCRESGLRTRTGSNIDCEKLRRRFSSLHFMVEVKGDLTAKKMVLALLELAQQDHGALDCCVVVILSHGCQASHLQFPGAVYGTDGCPVSVEKIVNIFNGTSCPSLGGKPKLFFIQACGGEQKDHGFEVASTSPEDESPGSNPEPDATPFQEGLRTFDQLDAISSLPTPSDIFVSYSTFPGFVSWRDPKSGSWYVETLDDIFEQWAHSEDLQSLLLRVANAVSVKGIYKQMPGCFNFLRKKLFFKTSAS | effective deletion of only double positive cells | very effectively deleted |

Source: patent US11103532B2, “Chimeric protein” (AUTOLUS LIMITED, priority 2015, dated 2021)
